Publication PMC10382584, “Macrocyclization of linear molecules by deep learning to facilitate macrocyclic drug candidates discovery” (Nature Communications, 2023)

Tests used:
Test in all cases: biochemical
Design in all cases: DiscoveRx KINOMEscan competition binding, percent of DMSO control signal at 100 nM
Conditions in all cases: read-out: Fig. 4a / Percent Control / Compound 1; percent of DMSO control, competition binding
[1] = target: T1, ABL1(T315I)-phosphorylated (Homo sapiens, UniProt P00519, T315I)
T1 construct: phosphorylated

[2] = target: ALK(C1156Y) (Homo sapiens, UniProt Q9UM73, C1156Y)
[3] = target: T2, ASK2 (Homo sapiens, UniProt O95382)
T2 construct: gene MAP3K6

[4] = target: CDKL5 (Homo sapiens, UniProt O76039)
[5] = target: CHEK2 (Homo sapiens, UniProt O96017)
[6] = target: CSNK1D (Homo sapiens, UniProt P48730)
[7] = target: CSNK2A1 (Homo sapiens, UniProt P68400)
[8] = target: T3, DMPK2 (Homo sapiens, UniProt Q6DT37)
T3 construct: gene CDC42BPG

[9] = target: EIF2AK1 (Homo sapiens, UniProt Q9BQI3)
Sequence of EIF2AK1 (Q9BQI3 whole entry): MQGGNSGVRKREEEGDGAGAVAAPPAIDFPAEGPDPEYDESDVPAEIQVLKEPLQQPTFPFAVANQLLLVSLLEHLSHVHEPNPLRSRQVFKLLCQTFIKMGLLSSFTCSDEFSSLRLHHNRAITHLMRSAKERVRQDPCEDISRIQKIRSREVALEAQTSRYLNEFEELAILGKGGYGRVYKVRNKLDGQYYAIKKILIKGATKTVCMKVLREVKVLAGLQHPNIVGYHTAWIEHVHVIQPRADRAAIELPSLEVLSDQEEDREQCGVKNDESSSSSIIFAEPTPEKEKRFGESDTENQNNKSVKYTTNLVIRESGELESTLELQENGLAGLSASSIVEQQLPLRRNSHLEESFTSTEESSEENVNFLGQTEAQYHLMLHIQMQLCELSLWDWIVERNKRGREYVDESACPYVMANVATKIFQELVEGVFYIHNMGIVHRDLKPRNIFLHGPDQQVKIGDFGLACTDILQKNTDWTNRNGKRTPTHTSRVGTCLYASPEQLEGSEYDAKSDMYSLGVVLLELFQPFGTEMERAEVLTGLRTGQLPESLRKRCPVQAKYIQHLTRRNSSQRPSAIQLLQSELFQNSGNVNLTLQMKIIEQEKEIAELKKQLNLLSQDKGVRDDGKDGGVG

[10] = target: EPHA5 (Homo sapiens, UniProt P54756)
[11] = target: HCK (Homo sapiens, UniProt P08631)
[12] = target: T4, ICK (Homo sapiens, UniProt Q9UPZ9)
T4 construct: gene CILK1
T4 sequence (Q9UPZ9 whole entry): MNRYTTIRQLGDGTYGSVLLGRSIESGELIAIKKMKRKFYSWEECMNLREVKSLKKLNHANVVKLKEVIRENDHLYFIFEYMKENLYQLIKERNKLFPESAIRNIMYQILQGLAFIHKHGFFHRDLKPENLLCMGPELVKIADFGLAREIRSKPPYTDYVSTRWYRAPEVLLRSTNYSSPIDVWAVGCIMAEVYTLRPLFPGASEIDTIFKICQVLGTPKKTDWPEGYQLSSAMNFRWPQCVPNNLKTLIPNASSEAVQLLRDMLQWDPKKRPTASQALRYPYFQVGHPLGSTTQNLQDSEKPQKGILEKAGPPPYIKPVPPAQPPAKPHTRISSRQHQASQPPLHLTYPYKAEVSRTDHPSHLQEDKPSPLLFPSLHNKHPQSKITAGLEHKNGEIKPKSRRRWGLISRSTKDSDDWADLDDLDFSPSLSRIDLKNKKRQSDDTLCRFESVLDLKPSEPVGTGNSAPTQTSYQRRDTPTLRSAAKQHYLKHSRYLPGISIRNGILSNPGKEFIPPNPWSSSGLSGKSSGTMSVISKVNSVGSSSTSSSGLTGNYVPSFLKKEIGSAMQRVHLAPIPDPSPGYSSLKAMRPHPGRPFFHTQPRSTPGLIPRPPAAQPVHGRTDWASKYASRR

[13] = target: T5, JNK3 (Homo sapiens, UniProt P53779)
T5 construct: gene MAPK10

[14] = target: MAPKAPK5 (Homo sapiens, UniProt Q8IW41)
[15] = target: MAST1 (Homo sapiens, UniProt Q9Y2H9)
Sequence of MAST1 (Q9Y2H9 whole entry): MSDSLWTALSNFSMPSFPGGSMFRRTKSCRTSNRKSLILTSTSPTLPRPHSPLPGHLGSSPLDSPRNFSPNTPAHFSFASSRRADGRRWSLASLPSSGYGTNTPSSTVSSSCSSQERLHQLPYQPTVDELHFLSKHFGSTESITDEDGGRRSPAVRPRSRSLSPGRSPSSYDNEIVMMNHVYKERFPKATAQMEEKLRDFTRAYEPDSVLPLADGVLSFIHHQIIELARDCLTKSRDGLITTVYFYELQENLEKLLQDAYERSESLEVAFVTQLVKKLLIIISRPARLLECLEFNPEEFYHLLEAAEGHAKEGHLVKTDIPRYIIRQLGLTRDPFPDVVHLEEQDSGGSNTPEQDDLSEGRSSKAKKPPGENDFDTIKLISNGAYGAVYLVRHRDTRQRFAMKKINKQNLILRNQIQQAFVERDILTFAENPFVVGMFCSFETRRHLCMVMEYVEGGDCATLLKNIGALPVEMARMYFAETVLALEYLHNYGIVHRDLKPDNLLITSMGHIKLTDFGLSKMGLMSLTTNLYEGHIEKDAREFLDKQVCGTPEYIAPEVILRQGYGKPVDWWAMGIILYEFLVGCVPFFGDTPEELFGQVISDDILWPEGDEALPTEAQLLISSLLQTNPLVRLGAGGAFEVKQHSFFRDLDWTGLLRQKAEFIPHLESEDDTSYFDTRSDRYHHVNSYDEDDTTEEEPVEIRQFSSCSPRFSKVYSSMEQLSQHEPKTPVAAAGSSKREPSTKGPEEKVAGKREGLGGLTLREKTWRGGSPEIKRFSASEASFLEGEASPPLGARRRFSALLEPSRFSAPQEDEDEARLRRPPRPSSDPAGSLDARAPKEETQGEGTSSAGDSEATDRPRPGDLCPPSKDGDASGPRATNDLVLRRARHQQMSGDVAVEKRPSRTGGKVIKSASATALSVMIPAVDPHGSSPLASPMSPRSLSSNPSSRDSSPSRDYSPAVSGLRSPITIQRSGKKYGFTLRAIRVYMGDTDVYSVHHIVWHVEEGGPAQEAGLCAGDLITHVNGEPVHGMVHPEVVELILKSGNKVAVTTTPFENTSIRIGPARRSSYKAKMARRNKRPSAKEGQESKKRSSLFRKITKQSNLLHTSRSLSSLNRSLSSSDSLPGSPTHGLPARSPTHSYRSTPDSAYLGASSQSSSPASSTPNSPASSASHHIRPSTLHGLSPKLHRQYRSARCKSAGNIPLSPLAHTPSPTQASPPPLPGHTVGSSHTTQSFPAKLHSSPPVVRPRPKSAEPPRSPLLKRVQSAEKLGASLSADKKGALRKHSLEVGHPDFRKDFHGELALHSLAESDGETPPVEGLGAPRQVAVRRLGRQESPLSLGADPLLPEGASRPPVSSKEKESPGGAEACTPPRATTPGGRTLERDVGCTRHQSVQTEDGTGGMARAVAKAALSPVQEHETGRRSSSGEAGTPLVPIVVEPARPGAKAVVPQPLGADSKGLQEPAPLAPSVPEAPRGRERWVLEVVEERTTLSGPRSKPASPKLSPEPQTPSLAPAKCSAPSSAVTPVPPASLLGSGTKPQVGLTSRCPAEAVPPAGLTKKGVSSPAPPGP

[16] = target: T6, MINK (Homo sapiens, UniProt Q8N4C8)
T6 construct: gene MINK1

[17] = target: T7, NIM1 (Homo sapiens, UniProt Q8IY84)
T7 construct: gene NIM1K

[18] = target: PDGFRA (Homo sapiens, UniProt P16234)
[19] = target: PIK3CA(E542K) (Homo sapiens, UniProt P42336, E542K)
[20] = target: PIK3CG (Homo sapiens, UniProt P48736)
Sequence of PIK3CG (P48736 whole entry): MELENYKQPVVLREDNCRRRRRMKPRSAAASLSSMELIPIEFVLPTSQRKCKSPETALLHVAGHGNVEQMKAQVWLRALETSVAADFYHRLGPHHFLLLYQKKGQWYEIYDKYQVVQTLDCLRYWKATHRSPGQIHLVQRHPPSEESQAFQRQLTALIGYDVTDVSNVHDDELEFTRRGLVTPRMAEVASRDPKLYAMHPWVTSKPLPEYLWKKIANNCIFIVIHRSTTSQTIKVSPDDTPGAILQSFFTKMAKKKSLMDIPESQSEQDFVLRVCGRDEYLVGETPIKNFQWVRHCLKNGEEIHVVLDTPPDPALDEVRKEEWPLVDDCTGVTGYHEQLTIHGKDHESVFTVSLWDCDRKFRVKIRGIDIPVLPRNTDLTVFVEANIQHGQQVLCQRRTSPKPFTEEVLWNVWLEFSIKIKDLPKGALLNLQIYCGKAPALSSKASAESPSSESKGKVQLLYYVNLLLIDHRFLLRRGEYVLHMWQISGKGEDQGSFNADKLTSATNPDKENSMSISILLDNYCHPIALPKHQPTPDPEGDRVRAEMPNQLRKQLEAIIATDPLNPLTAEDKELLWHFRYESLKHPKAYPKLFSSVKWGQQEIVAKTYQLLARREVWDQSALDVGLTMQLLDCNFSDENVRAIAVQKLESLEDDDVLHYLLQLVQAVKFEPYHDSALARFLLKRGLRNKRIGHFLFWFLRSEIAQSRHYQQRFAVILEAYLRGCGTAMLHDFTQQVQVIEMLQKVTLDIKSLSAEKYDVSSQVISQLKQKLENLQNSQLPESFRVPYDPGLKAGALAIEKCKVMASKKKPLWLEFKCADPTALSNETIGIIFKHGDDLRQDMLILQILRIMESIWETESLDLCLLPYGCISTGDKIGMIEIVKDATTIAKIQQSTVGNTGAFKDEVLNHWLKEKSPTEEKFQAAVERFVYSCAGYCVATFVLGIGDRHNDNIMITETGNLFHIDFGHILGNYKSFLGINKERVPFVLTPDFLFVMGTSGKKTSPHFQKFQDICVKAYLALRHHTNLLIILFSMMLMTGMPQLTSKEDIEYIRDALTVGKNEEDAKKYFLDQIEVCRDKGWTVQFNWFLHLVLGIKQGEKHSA

[21] = target: PIM2 (Homo sapiens, UniProt Q9P1W9)
Sequence of PIM2 (Q9P1W9 whole entry): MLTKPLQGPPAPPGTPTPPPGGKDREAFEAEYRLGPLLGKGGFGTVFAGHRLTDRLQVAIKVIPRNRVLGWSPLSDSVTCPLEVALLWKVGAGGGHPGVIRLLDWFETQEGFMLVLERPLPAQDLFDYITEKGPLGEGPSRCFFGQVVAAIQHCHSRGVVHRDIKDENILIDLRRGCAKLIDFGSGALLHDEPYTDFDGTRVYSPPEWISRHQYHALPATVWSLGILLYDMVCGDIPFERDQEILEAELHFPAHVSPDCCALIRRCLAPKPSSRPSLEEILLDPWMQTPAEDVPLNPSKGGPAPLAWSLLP

[22] = target: PRKCD (Homo sapiens, UniProt Q05655)
Sequence of PRKCD (Q05655 whole entry): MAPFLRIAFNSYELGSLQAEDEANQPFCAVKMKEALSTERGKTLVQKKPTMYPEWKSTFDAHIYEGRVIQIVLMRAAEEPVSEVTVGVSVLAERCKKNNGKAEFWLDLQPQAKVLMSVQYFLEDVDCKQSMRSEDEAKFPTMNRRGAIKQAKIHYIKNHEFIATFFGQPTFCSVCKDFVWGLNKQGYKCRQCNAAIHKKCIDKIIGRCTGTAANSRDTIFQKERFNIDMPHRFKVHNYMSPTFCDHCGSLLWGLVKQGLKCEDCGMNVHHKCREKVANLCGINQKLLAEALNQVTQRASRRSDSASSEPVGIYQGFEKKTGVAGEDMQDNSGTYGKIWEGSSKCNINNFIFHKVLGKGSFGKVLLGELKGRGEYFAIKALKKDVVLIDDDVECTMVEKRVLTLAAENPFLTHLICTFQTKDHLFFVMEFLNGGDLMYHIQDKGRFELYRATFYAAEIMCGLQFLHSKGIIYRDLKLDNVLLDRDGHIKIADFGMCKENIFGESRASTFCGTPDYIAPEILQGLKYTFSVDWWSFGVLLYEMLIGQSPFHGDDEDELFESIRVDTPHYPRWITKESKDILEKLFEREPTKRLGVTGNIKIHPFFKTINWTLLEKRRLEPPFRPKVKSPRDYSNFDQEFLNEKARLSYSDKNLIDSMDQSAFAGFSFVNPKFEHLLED

[23] = target: PRKD3 (Homo sapiens, UniProt O94806)
[24] = target: PRKG1 (Homo sapiens, UniProt Q13976)
[25] = target: TSSK3 (Homo sapiens, UniProt Q96PN8)
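Also: KINOMEscan kinase panel binding assay, signal normalized between DMSO as 100% and a positive control compound as 0%.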

Cc1cnc2nc1Nc1cccc(c1)COCc1cc(ccc1OCCN1CCCC1)N2 [Compound 1]
remaining binding at 0.1 µM [1]: 49%
remaining binding at 0.1 µM [2]: 40%
remaining binding at 0.1 µM [3]: 96%
remaining binding at 0.1 µM [4]: 100%
remaining binding at 0.1 µM [5]: 87%
remaining binding at 0.1 µM [6]: 100%
remaining binding at 0.1 µM [7]: 57%
remaining binding at 0.1 µM [8]: 98%
remaining binding at 0.1 µM [9]: 76%
remaining binding at 0.1 µM [10]: 100%
remaining binding at 0.1 µM [11]: 100%
remaining binding at 0.1 µM [12]: 80%
remaining binding at 0.1 µM [13]: 43%
remaining binding at 0.1 µM [14]: 69%
remaining binding at 0.1 µM [15]: 94%
remaining binding at 0.1 µM [16]: 82%
remaining binding at 0.1 µM [17]: 99%
remaining binding at 0.1 µM [18]: 73%
remaining binding at 0.1 µM [19]: 89%
remaining binding at 0.1 µM [20]: 69%
remaining binding at 0.1 µM [21]: 100%
remaining binding at 0.1 µM [22]: 100%
remaining binding at 0.1 µM [23]: 100%
remaining binding at 0.1 µM [24]: 100%
remaining binding at 0.1 µM [25]: 78%
